Assay results published in ChEMBL document CHEMBL1201862, “PubChem BioAssay data set” (2004).
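Protocol summary: plate cells (96-well), add compound at 5 concentrations, incubate 48 h, interpolate endpoints linearly. GI50: concentration for 50% inhibition of growth.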 Calls of active or inactive are those of the source. Cut-off read from the data, not from the text of the source: active = GI50 up to about 1.1 µM and inactive = higher.

What was measured:
Test in all cases: NCI-60 cell line screen, 48 h
EKVX = system: EKVX
RXF 393 = system: RXF 393
MDA-N = system: MDA-N
BT-549 = system: BT-549
SF-295 = system: SF-295
PC-3 = system: PC-3
SN12C = system: SN12C
Hs-578T = system: Hs-578T
A549 = system: A549
HCT-15 = system: HCT-15
UACC-62 = system: UACC-62
HCT-116 = system: HCT-116
COLO 205 = system: COLO 205
SF-539 = system: SF-539
ACHN = system: ACHN
SW-620 = system: SW-620
NCI-H226 = system: NCI-H226
SR = system: SR
OVCAR-4 = system: OVCAR-4
IGROV-1 = system: IGROV-1
TK-10 = system: TK-10
U-251 = system: U-251
SNB-75 = system: SNB-75
SK-MEL-28 = system: SK-MEL-28
NCI-H23 = system: NCI-H23
SK-MEL-5 = system: SK-MEL-5
MOLT-4 = system: MOLT-4
HL-60 = system: HL-60
HOP-92 = system: HOP-92
CCRF-CEM = system: CCRF-CEM
HT-29 = system: HT-29
KM12 = system: KM12
DU-145 = system: DU-145
MCF7 = system: MCF7
OVCAR-8 = system: OVCAR-8
OVCAR-5 = system: OVCAR-5
M14 = system: M14
UACC-257 = system: UACC-257
HOP-62 = system: HOP-62
MDA-MB-435 = system: MDA-MB-435
LOX IMVI = system: LOX IMVI
NCI-H460 = system: NCI-H460
SK-OV-3 = system: SK-OV-3
786-0 = system: 786-0
SK-MEL-2 = system: SK-MEL-2
NCI-H522 = system: NCI-H522
SNB-19 = system: SNB-19
HCC 2998 = system: HCC 2998
OVCAR-3 = system: OVCAR-3
CAKI-1 = system: CAKI-1
SF-268 = system: SF-268
MDA-MB-231 = system: MDA-MB-231
UO-31 = system: UO-31
NCI/ADR-RES = system: NCI/ADR-RES
RPMI-8226 = system: RPMI-8226
K562 = system: K562

Cc1csc(NNC(N)=O)n1
GI50 (EKVX): > 100 µM (inactive) | GI50 (RXF 393): > 100 µM (inactive) | GI50 (MDA-N): > 100 µM (inactive) | GI50 (BT-549): > 100 µM (inactive) | GI50 (SF-295): > 100 µM (inactive) | GI50 (PC-3): > 100 µM (inactive) | GI50 (SN12C): > 100 µM (inactive) | GI50 (Hs-578T): > 100 µM (inactive) | GI50 (A549): > 100 µM (inactive) | GI50 (HCT-15): > 100 µM | GI50 (UACC-62): > 100 µM (inactive) | GI50 (HCT-116): > 100 µM (inactive) | GI50 (COLO 205): > 100 µM (inactive) | GI50 (SF-539): > 100 µM (inactive) | GI50 (ACHN): > 100 µM (inactive) | GI50 (SW-620): > 100 µM (inactive) | GI50 (NCI-H226): > 100 µM (inactive) | GI50 (SR): 25.6 µM (inactive) | GI50 (OVCAR-4): > 100 µM (inactive) | GI50 (IGROV-1): > 100 µM (inactive) | GI50 (TK-10): > 100 µM (inactive) | GI50 (U-251): > 100 µM (inactive) | GI50 (SNB-75): > 100 µM (inactive) | GI50 (SK-MEL-28): > 100 µM (inactive) | GI50 (NCI-H23): > 100 µM (inactive) | GI50 (SK-MEL-5): > 100 µM (inactive) | GI50 (MOLT-4): > 100 µM (inactive) | GI50 (HL-60): > 100 µM (inactive) | GI50 (HOP-92): > 100 µM (inactive) | GI50 (CCRF-CEM): > 100 µM (inactive) | GI50 (HT-29): > 100 µM (inactive) | GI50 (KM12): > 100 µM (inactive) | GI50 (DU-145): > 100 µM (inactive) | GI50 (MCF7): > 100 µM (inactive) | GI50 (OVCAR-8): > 100 µM (inactive) | GI50 (OVCAR-5): > 100 µM (inactive) | GI50 (M14): > 100 µM (inactive) | GI50 (UACC-257): > 100 µM (inactive) | GI50 (HOP-62): > 100 µM (inactive) | GI50 (MDA-MB-435): > 100 µM (inactive) | GI50 (LOX IMVI): > 100 µM (inactive) | GI50 (NCI-H460): > 100 µM (inactive) | GI50 (SK-OV-3): > 100 µM (inactive) | GI50 (786-0): > 100 µM (inactive) | GI50 (SK-MEL-2): > 100 µM (inactive) | GI50 (NCI-H522): > 100 µM (inactive) | GI50 (SNB-19): > 100 µM (inactive) | GI50 (HCC 2998): > 100 µM (inactive) | GI50 (OVCAR-3): > 100 µM (inactive) | GI50 (CAKI-1): > 100 µM (inactive) | GI50 (SF-268): > 100 µM (inactive) | GI50 (MDA-MB-231): > 100 µM (inactive) | GI50 (UO-31): > 100 µM (inactive) | GI50 (NCI/ADR-RES): > 100 µM (inactive)

C=C1C2C[C@@H]3O[C@H]4C[C@H]5O[C@@]6(C[C@@H]7O[C@]8(C[C@H](C)[C@@H]9O[C@@H]%10CC(C=O)O[C@@H]%10C[C@@H]9O8)C[C@H](C)[C@@H]7O6)C[C@H]5O[C@H]4[C@H](C)[C@H]3OC(=O)C[C@H]3CC[C@@H]4OC5[C@H]6O[C@]7(CC[C@H]8CC(=C)[C@H](CC[C@@H](C[C@H]1C)O2)O8)CC6O[C@@H]5[C@@H](O7)[C@H]4O3 (stereo partly specified)
GI50 (EKVX): < 0.0001 µM (active) | GI50 (RXF 393): < 0.0001 µM (active) | GI50 (MDA-N): < 0.0001 µM (active) | GI50 (BT-549): < 0.0001 µM (active) | GI50 (SF-295): < 0.0001 µM (active) | GI50 (RPMI-8226): < 0.0001 µM (active) | GI50 (PC-3): < 0.0001 µM (active) | GI50 (SN12C): 0.000179 µM (active) | GI50 (Hs-578T): < 0.0001 µM (active) | GI50 (A549): < 0.0001 µM (active) | GI50 (HCT-15): < 0.0001 µM | GI50 (UACC-62): < 0.0001 µM (active) | GI50 (HCT-116): < 0.0001 µM (active) | GI50 (COLO 205): < 0.0001 µM (active) | GI50 (ACHN): < 0.0001 µM (active) | GI50 (SW-620): < 0.0001 µM (active) | GI50 (NCI-H226): < 0.0001 µM (active) | GI50 (SR): < 0.0001 µM (active) | GI50 (IGROV-1): < 0.0001 µM (active) | GI50 (TK-10): 0.00771 µM (active) | GI50 (U-251): < 0.0001 µM (active) | GI50 (SNB-75): < 0.0001 µM (active) | GI50 (NCI-H23): < 0.0001 µM (active) | GI50 (SK-MEL-5): < 0.0001 µM (active) | GI50 (MOLT-4): < 0.0001 µM (active) | GI50 (HOP-92): 0.000724 µM (active) | GI50 (KM12): < 0.0001 µM (active) | GI50 (DU-145): < 0.0001 µM (active) | GI50 (MCF7): < 0.0001 µM (active) | GI50 (OVCAR-8): < 0.0001 µM (active) | GI50 (M14): < 0.0001 µM (active) | GI50 (UACC-257): < 0.01 µM (active) | GI50 (HOP-62): < 0.0001 µM (active) | GI50 (MDA-MB-435): < 0.0001 µM (active) | GI50 (LOX IMVI): < 0.0001 µM (active) | GI50 (NCI-H460): < 0.0001 µM (active) | GI50 (786-0): < 0.0001 µM (active) | GI50 (NCI-H522): < 0.0001 µM (active) | GI50 (SNB-19): 0.000104 µM (active) | GI50 (HCC 2998): < 0.0001 µM (active) | GI50 (K562): < 0.0001 µM (active) | GI50 (OVCAR-3): < 0.0001 µM (active) | GI50 (CAKI-1): < 0.0001 µM (active) | GI50 (SF-268): < 0.0001 µM (active) | GI50 (MDA-MB-231): 0.000229 µM (active) | GI50 (UO-31): < 0.0001 µM (active) | GI50 (NCI/ADR-RES): 0.000951 µM (active)
